Earlier results as cited in PMC7395068, “The evolution of strategies to minimise the risk of human drug-induced liver injury (DILI) in drug discovery and development” (Archives of Toxicology, 2020).
Read-outs that look alike come from different tables or passages of the source.

Key:
[1] = cited from earlier work
[2] = cited from earlier work; remark: listed apart in the source
PHH spheroids = details: In vitro Assay; ref Vorrink 2018; cited from earlier work
[3] = system: HepG2 C3A spheroid, BSEP, Glu/Gal in HepG2 cells, bioactivation; details: In vitro Assay; ref Williams 2019; cited from earlier work
[4] = system: THLE-Null and THLE-3A4 cells; details: In vitro Assay; ref Gustafsson 2014; cited from earlier work
[5] = cited from earlier work; remark: listed apart in the source
[6] = system: primary human hepatocytes, NIH3T3 fibroblasts, BSEP, CYP3A4; details: In vitro Assay; ref Schadt 2015; cited from earlier work
[7] = system: THLE or HepG2 cells, isolated mitochondria, BSEP; details: In vitro Assay; ref Aleo 2019; cited from earlier work
rBsep = details: In vitro Assay; ref Dawson 2012; cited from earlier work
[8] = system: HepG2 cells, primary human hepatocytes; details: In vitro Assay; ref Garside 2014; cited from earlier work
hLiMTs = details: In vitro Assay; ref Proctor 2017; cited from earlier work
PHH = details: In vitro Assay; ref Proctor 2017; cited from earlier work
[9] = FDA drug labelling score, ref Chen 2011
[10] = LTKB DILIrank category, ref Chen 2016
[11] = binary DILI call, ref Chen 2016
[12] = FDA drug labelling score, scale 1-8, ref Chen 2011
[13] = binary in vivo human DILI call, ref Chen 2016
[14] = human DILI, LTKB DILIrank category, ref Chen 2016

Nc1nc(NC2CC2)c2ncn([C@H]3C=C[C@@H](CO)C3)c2n1 [abacavir]
DILI Score (FDA) (1-8) [1, 9]: 8 | DILI severity category [2, 10]: vMost-DILI-Concern

C[C@H]1O[C@H](O[C@H]2[C@H](O)[C@@H](O)[C@@H](O[C@H]3[C@H](O)[C@@H](O)C(O)O[C@@H]3CO)O[C@@H]2CO)[C@H](O)[C@@H](O)[C@@H]1N[C@H]1C=C(CO)[C@@H](O)[C@H](O)[C@H]1O (stereo partly drawn) [acarbose]
DILI Score (FDA) (1-8) ([1]; in vivo): 5 | DILI +VE (5-8), DILI -VE (-4) ([2]; in vivo): +VE | DILI severity category ([2]; in vivo): vMost-DILI-Concern

CN(C)c1nc(N(C)C)nc(N(C)C)n1 [altretamine]
DILI Score (FDA) (1-8) [1, 9]: 2 | DILI severity category [2, 10]: Ambiguous DILI-concern | DILI +VE (5-8), DILI -VE (-4) [2, 11]: -VE

CC(C(=O)O)c1ccc2oc(-c3ccc(Cl)cc3)nc2c1 (stereo not drawn) [benoxaprofen]
hLiMTs ATP <20 x Cmax (PHH spheroids): -VE | Bayesian Machine Learning [3]: +VE | THLE-Null [4]: -VE | THLE-Null/3A4 [4]: -VE | DILI +VE (5-8), DILI -VE (-4) ([2]; ref Chen 2016): +VE | DILI severity category ([2]; ref Chen 2016): vMost-DILI-Concern | In vivo DILI ([5]; ref Aleo 2019): +VE | In vivo DILI ([5]; ref Dawson 2012): +VE | In vivo DILI ([5]; ref Garside 2014): +VE | In vivo DILI ([5]; ref Gustafsson 2014): +VE | In vivo DILI ([5]; ref Proctor 2017): +VE | In vivo DILI ([5]; ref Schadt 2015): +VE | In vivo DILI ([5]; ref Vorrink 2018): +VE | In vivo DILI ([5]; ref Williams 2019): +VE | Cellular toxicity (3T3 cells) [6]: -VE | Combined Assay [6]: +VE | GSH adduct HML [6]: -VE | Hepatocyte cellular toxicity [6]: -VE | MitoTox 3T3 [6]: -VE | TDI CYP3A4 [6]: -VE | hBSEP inhibition [6]: -VE | Partition Hybrid HRM Score [7]: +VE | Ro2 Hybrid HRM Score [7]: +VE | Inhibition of rBsep cutoff<1& cmax u>.2 (rBsep): +VE | Inhibition of rBsep cutoff<3 (rBsep): +VE | Cluster 1-6 +VE Assay [8]: +VE | hLiMTs ATP <100uM (hLiMTs): -VE | PHH ATP <100uM (PHH): -VE

CC(C)NCC(O)COc1ccc(COCCOC(C)C)cc1 (stereo not drawn) [bisoprolol]
DILI Score (FDA) (1-8) [1, 9]: 3 | DILI severity category [2, 10]: Ambiguous DILI-concern | DILI +VE (5-8), DILI -VE (-4) [2, 11]: -VE

Cc1ccc(-c2cc(C(F)(F)F)nn2-c2ccc(S(N)(=O)=O)cc2)cc1 [celecoxib]
hLiMTs ATP <20 x Cmax (PHH spheroids): +VE (IC20 < 20 × Cmax.tot cut-off) | Bayesian Machine Learning [3]: +VE | THLE-Null [4]: +VE | DILI +VE (5-8), DILI -VE (-4) ([2]; ref Chen 2016): +VE | DILI severity category ([2]; ref Chen 2016): vLess-DILI-Concern | In vivo DILI ([5]; ref Garside 2014): +VE | In vivo DILI ([5]; ref Gustafsson 2014): +VE | In vivo DILI ([5]; ref Proctor 2017): +VE | In vivo DILI ([5]; ref Schadt 2015): +VE | In vivo DILI ([5]; ref Vorrink 2018): +VE | In vivo DILI ([5]; ref Williams 2019): +VE | Cellular toxicity (3T3 cells) [6]: +VE | GSH adduct HML [6]: -VE | Hepatocyte cellular toxicity [6]: -VE | MitoTox 3T3 [6]: -VE | TDI CYP3A4 [6]: -VE | hBSEP inhibition [6]: -VE | Cluster 1-6 +VE Assay [8]: +VE | hLiMTs ATP <100uM (hLiMTs): +VE (IC50 threshold of 100 µM) | PHH ATP <100uM (PHH): +VE (IC50 threshold of 100 µM)

Nc1ccn([C@@H]2O[C@H](CO)[C@@H](O)[C@@H]2O)c(=O)n1 [cytarabine]
DILI Score (FDA) (1-8) ([1]; in vivo): 3 | DILI +VE (5-8), DILI -VE (-4) ([2]; in vivo): +VE | DILI severity category ([2]; in vivo): vMost-DILI-Concern | In vivo DILI ([5]; in vivo): +VE

O=C(O)c1ccc(-n2nc(-c3ccccc3O)nc2-c2ccccc2O)cc1 [deferasirox]
DILI Score (FDA) (1-8) [1, 12]: 7 | DILI +VE (5-8), DILI -VE (-4) [2, 13]: +VE | DILI severity category [2, 14]: vMost-DILI-Concern

CC(=O)O[C@@]12CO[C@@H]1C[C@H](O)[C@@]1(C)C(=O)[C@H](O)C3=C(C)[C@@H](OC(=O)[C@H](O)[C@@H](NC(=O)OC(C)(C)C)c4ccccc4)C[C@@](O)([C@@H](OC(=O)c4ccccc4)[C@H]21)C3(C)C [docetaxel]
DILI Score (FDA) (1-8) [1, 12]: 8 | DILI +VE (5-8), DILI -VE (-4) [2, 13]: +VE | DILI severity category [2, 14]: vLess-DILI-Concern

CC[C@@H](CO)NCCN[C@@H](CC)CO [ethambutol]
DILI Score (FDA) (1-8) ([1]; ref Chen 2011): 8 | DILI +VE (5-8), DILI -VE (-4) ([2]; ref Chen 2016): +VE | DILI severity category ([2]; ref Chen 2016): vMost-DILI-Concern | In vivo DILI ([5]; ref Aleo 2019): +VE | Partition Hybrid HRM Score [7]: -VE | Ro2 Hybrid HRM Score [7]: -VE
